Source: US20090239884A1, “Methods of Treating Inflammation” (priority 2006, published 2009)
pIC50: −log10 of the molar value.

Assays:
[1] = system: Con A-activated splenocytes on TNF-α activated bEnd.3 endothelial cells; assay: T cell-endothelial cell adhesion assay (Example 13); format: cell-based, mouse
Method: Cell treatment. Confluent bEnd.3 monolayers were incubated with 200 ng/ml TNF-α (Peprotech, Rocky Hill, N.J.) at 37° c. for 2 hours. […] Christoff Zitt and Armin Hatzelmann (Altana Pharma, Konstanz, Germany). Con A-activated splenocytes or CD4^+CD25^− T cells activated with plate-bound anti-CD3 mAb were treated with the same reagents for 20, 45, or 90 minutes.
Adhesion assays. Adhesion assays were performed in 24-well plates with a confluent layer of bEnd.3 cells. Splenocytes or CD4^+CD25^− T cells were labeled with 5 μM Calcein AM (Molecular Probes, Eugene, Oreg.) and treated as described above. 7×10^5 pretreated splenocytes or CD4^+CD25^− T cells per well were incubated on bEnd.3 cells in RPMI media. After 30 minutes at 37° C., non-adherent cells were removed by washing with D-PBS. For analysis, 7×10^5 Calcein AM labeled splenocytes or CD4^+CD25^− T cells were used as positive controls. Fluorescence was read in a Victor 3v microplate reader (Perkin Elmer, Waltham, Mass.) with a fluorescein filter set. The percentage of adherent T cells, i.e. labeled cells resistant to detachment, was calculated as total fluorescence of well divided by fluorescence of 7×10^5 Calcein AM labeled cells multiplied by 100.
In FIGS. 20A-20B, splenocytes from C57BL/6 mice were activated with Con A (3 μg/ml) for 48 hours followed by a 45 minute incubation with (A) IBMX (300 μM), piclamilast (Picl, 1 μM) or DP (100 μM), (B) dibutryl cAMP (Db-cAMP, 500 μM) or DP in the presence or absence of adenosine deaminase (AD, 1 U/ml) or vehicle (0.1% DMSO). bEnd.3 endothelial cells were activated for 2 hours with TNF-α (200 ng/ml) and incubated with the same reagents for the final 45 minutes before splenocytes were added to the bEnd.3 cells for the adhesion assay. The data are presented as the mean±SEM percentage of splenocytes which were resistant to detachment. Results are representative of at least three independent experiments run in triplicate (*p<0.05, **p<0.001; one way ANOVA followed by Bonferroni t-test).

[2] = system: CD4+CD25− T cells; assay: qRT-PCR of PDE and cytokine genes in anti-CD3 activated CD4+CD25− T cells; format: cell-based, mouse; conditions: for changes in PDE gene expression: 20 minutes; for changes in PDE gene expression / increase of PDE4B gene expression: IBMX 300 μM; for PDE3B, 7A, and 8A expression: after DP and IBMX treatment
Method: Cell Culture. Mouse splenocytes were prepared and cultured as described. (Dong H, Osmanova V, Epstein P M, Brocke S. Phosphodiesterase 8 (PDE8) regulates chemotaxis of activated lymphocytes. Biochem Biophys Res Commun. 2006; 345:713-719) […] were separated from CD4^+CD25^+ Treg cells using a CD4^+CD25^+ Regulatory T Cell Isolation Kit (Miltenyi Biotec, Auburn, Calif.) and activated for 18 hours on plate-bound anti-CD3 mAb (5 μg/ml). Cells of the murine brain endothelium-derived cell line bEnd.3 (ATCC, Manassas, Va.) were seeded into 24-well plates (Costar, Cambridge, Mass.) in DMEM supplemented with 100 U/ml penicillin, […] streptomycin, 2 mM LGlutamine, and 10% fetal bovine serum (all Gibco, Carlsbad, Calif.). bEnd.3 assays were performed on confluent bEnd.3 monolayers.
Quantitative real-time RT-PCR analysis. 10 ng cDNA, or 2 μl cDNA for LCM studies, was amplified by qRT-PCR in a 25 μl reaction using SYBR Green PCR Master Mix (Applied Biosystems, Foster City, Calif.). Primers were designed using Primer Express software v3.0 and primer efficiency verified by slope analysis to be 100%±2.5%. qRT-PCR was performed using an ABI 7500 fast system and data analyzed using the Δ^ct method (SDS software v3.0). Amplicon sizes were approximately 100 bp.
Cell treatment. Confluent bEnd.3 monolayers were incubated with 200 ng/ml TNF-α (Peprotech, Rocky Hill, N.J.) at 37° c. for 2 hours. […] The selective PDE3 and PDE4 inhibitors motapizone and piclamilast were supplied by Drs. Christoff Zitt and Armin Hatzelmann (Altana Pharma, Konstanz, Germany). Con A-activated splenocytes or CD4^+CD25^− T cells activated with plate-bound anti-CD3 mAb were treated with the same reagents for 20, 45, or 90 minutes.
In FIGS. 21A-21B, purified CD4^+CD25^− T cells were activated with plate-bound anti-CD3 mAb for 18 hours followed by incubation with IBMX (300 μM), DP (100 μM) or vehicle (0.1% DMSO) for (A) 20 or (B) 90 minutes. PDE (A, Bi) and cytokine (Bii) gene expression was then analyzed by qRT-PCR with the data presented as the mean+SEM of triplicate determinations. The results are representative of 2 independent experiments (*p<0.05, **p<0.001; one way ANOVA followed by Bonferroni t-test).

[3] = system: CD4+CD25− T cells; assay: cAMP levels in CD4+CD25− T cells; format: cell-based, mouse; conditions: 20 minutes of treatment; resolved by 90 minutes
[4] = system: bEnd.3 cells; assay: intracellular cAMP ELISA in bEnd.3 cells; format: cell-based, mouse; conditions: DP 100 μM, IBMX 300 μM; for cAMP levels in bEnd.3 cells: 45 minutes
Method: Intracellular cAMP ELISAs. Activated bEnd.3 cells were treated as described above for 20, 45, or 90 minutes. cAMP levels were determined with a Correlate cAMP ELISA kit (Assay Designs, Ann Arbor, Mich.) using an ELISA reader (Bio-Rad, Hercules, Calif.) at 405 nm.
In FIG. 23B, IBMX (300 μM), DP (100 μM), or vehicle (0.1% DMSO) were added to the bEnd.3 cells for the final 20, 45, and 90 minutes of TNF-α exposure and the cellular cAMP content analyzed by ELISA. The values are given as the mean±SEM of an experiment run in duplicate with the results representative of 2 independent experiments (*p<0.05, **p<0.001; one way ANOVA followed by Bonferroni t-test for comparisons between vehicle and DP or IBMX and an unpaired t-test for comparisons between DP and IBMX).

[5] = molecular target: PDE8A1 catalytic domain (Homo sapiens, UniProt O60658); conditions: wild type; cited from earlier work
Chain of PDE8A1 catalytic domain (O60658 480-820 limits assumed): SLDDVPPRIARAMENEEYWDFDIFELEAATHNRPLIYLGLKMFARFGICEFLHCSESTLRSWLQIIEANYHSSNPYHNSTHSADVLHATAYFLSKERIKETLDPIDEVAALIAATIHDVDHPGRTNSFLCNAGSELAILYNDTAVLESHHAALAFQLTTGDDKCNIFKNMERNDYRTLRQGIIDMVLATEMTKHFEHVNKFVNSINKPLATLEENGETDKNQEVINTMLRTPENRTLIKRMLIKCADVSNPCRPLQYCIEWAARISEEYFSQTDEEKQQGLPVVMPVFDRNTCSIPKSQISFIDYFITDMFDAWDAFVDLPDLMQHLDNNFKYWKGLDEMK

[6] = molecular target: Y748F mutant of PDE8A catalytic domain (Homo sapiens, UniProt O60658, Y748F); conditions: cited from earlier work
Chain of Y748F mutant of PDE8A catalytic domain (O60658 480-820 Y748F limits assumed): as the sequence (O60658 480-820 limits assumed) above, with Y269F counted along it

Row | SMILES | reduction of adhesion of T cells ([1]; short term, activated endothelial cells (discussion)) | changes in PDE gene expression ([2]; DP 100 μM) | decrease of IL-2 gene expression ([2]; 90 minutes, DP 100 μM) | decrease of TNF-α gene expression ([2]; 90 minutes, DP 100 μM) | increase of PDE4B gene expression ([2]; 90 minutes, DP 100 μM) | PDE3B, 7A, and 8A expression [2] | cAMP in CD4+CD25− T cells [3] | cAMP levels in bEnd.3 cells [4] | increase of cAMP levels in bEnd.3 cells ([4]; within 20 minutes) | pIC50 [5] | pIC50 [6] | ability to reduce adhesion of activated T cells to endothelial cells ([1]; 45 minute incubation, IBMX 300 μM, piclamilast 1 μM, motapizone 1 μM) | sensitivity of PDE8A1 catalytic domain to inhibition [5] | sensitivity of Tyr748-to-phenylalanine mutant to inhibition [6]
1 | OCCN(CCO)c1nc(N2CCCCC2)c2nc(N(CCO)CCO)nc(N3CCCCC3)c2n1 [Dipyridamole, 2,2′,2″,2′″-(4,8-di(piperidin-1-yl)pyrimido[5,4-d]pyrimidine-2,6-diyl)bis(azanetriyl)tetraethanol] | 65% | No significant changes | 2 fold | 3 fold | 8 fold | unchanged | increase | significantly increased | over 2 fold | ~5.22 | ~5.39 | – | – | –
2 | CC(C)Cn1c(=O)n(C)c(=O)c2[nH]cnc21 [IBMX, 3-isobutyl-1-methylxanthine] | – | No significant changes | – | – | 5 fold | unchanged | increase | significantly increased | – | – | – | neither | insensitive | restores sensitivity
